Reference: US20240335395A1, “COMPOSITIONS AND METHODS FOR PREVENTING AND/OR TREATING DISEASE ASSOCIATED WITH IL-23 EXPRESSION” (ALLSPIM, priority 2021, published 2024)

Tests used:
[1] = system: MSU-induced knee joint edema; test: MSU-induced knee joint edema in mice; format: in vivo, mouse; settings: 20 h
Description: 2,4-D, isolated and purified from Chloranthus spicatus (purity≥98%), was purchased from BOC Science (Shirley, NY). Colchicine (CLC) (purity≥96%) and dexamethasone (DEX) (purity≥98%) were purchased from Sigma. Mice (six per group) were treated with 2,4-D (100 mg/kg or 20 mg/kg, i.p.), CLC (1 mg/kg or 0.2 mg/kg, i.p.), DEX (0.5 mg/kg or 0.1 mg/kg, i.p.), or vehicle (20% polyoxyethylenesorbitan monooleate (Tween 80) plus PBS) 30 min before intra-articular stimulus with MSU (100 μg/10 μL, i.a.). Six mice with intra-articular injection with PBS alone served as a negative control.
Preparation of monosodium urate crystal (MSU). MSU crystals were prepared as described previously (Ruiz-Miyazawa et al., 2017). Briefly, 800 mg of monosodium urate was dissolved in 155 ml of boiling milli-Q water containing 2N NaOH. After pH adjustment to 8.9, the solution was cooled gradually by stirring at room temperature and crystallized overnight at 4° C. Crystals were collected, and centrifuged at 3,000×g for 2 min at 4° C. The crystals were evaporated and sterilized by heating at 180° C. for 2 h and stored in a sterile environment until use. The load of endotoxin present in the MSU crystals was determined using a ToxinSensor^TM Single Test Kit (GenScript).
Induction of MSU-Induced Knee Joint Inflammation. Male ICR (CD-1) mice (35-45 g, 10-12 weeks) were purchased from VitalRiver Inc (Beijing, China) and were kept in an animal care facility under controlled temperature of 21±1° C., humidity, and on a light/dark cycle, with ad libitum access to water and standard laboratory chow diet. Animal care and handling procedures were approved by the Animal Ethics Committee of GZUCM (Guangzhou University of Chinese Medicine). All efforts were made to minimize animal suffering and to reduce the number of animals used. Joint inflammation was induced by the intra-articular (i.a.) administration of MSU (200 μg/20 μl) into the right and left knee joints of mice under inhaled 3% isoflurane anesthesia. Control animals received an injection (i.a.) of sterile PBS (20 μL).
Evaluation of Knee Joint Edema. Knee joint edema was determined with a caliper (Mitutoyo) before (zero time), and after the intra-articular injection with MSU at the times indicated. Knee joint edema was determined for each mouse by the difference between the time points indicated on figures and the zero time (Ruiz-Miyazawa et al, 2017). The edema value is represented as Amm/joint.
Statistical Analysis. Data were analyzed using GraphPad Prism statistical software (GraphPad Software, Inc., United States-500.288, version 5.0). Results are presented as means±SEM or SD of measurements made on 6 mice per group, with statistical significance determined by two-way ANOVA, comparing each group to the control (“Model”) group. For in vitro experiments, microassays were performed in quadruplicate. p<0.05 was considered significant (*p<0.05, **p<0.01, ***p<0.001).

[2] = system: Balb/c to C57BL/6 skin graft; test: Balb/c to C57BL/6 full-thickness skin graft survival; format: in vivo, mouse; settings: oral, bid
Description: Skin transplantation. Murine full-thickness allo-skin transplantation to study graft rejection was conducted according to a previously well-described protocol (Cheng et al, 2017). All procedures were conducted in accordance with the Guide for the Care and Use of Laboratory Animals of the National Institute of Health (NIH) and were approved by the animal ethics committee of Guangzhou University of Chinese Medicine.
Briefly, donor mice (Balb/c) were anesthetized with isoflurane (induction vaporizer at 4%, maintenance at 1-2% through the mouse cone). The toe pinch withdrawal reflex was used to monitor the depth of anesthesia. The back of the animal was shaved with an electric razor and disinfected with 10% povidone iodine. Using sterile scissors, gloves, and aseptic technique, donor back skin was harvested from the hip to the neck with blunt dissection at the level of the areolar connective tissue. After harvesting the skin graft, the animal was euthanized by cervical dislocation. Under a microscope, the connective tissue, fat tissue, and panniculus carnosus were separated from the back skin using fine tenotomy scissors. Using sterile technique, 15-mm×15-mm grafts were cut out from the back skin for a 10-mm×10-mm to 15-mm×15-mm graft bed (10 grafts were obtained from one donor mouse). The grafts were stored on gauze soaked with sterile phosphate-buffered saline (PBS) in a petri dish on ice.
The recipient mice (C57BL/6) were anesthetized with isoflurane. Buprenorphine (0.02 mg/kg) was administrated for postoperative pain relief. The side of the back of the animal where the graft will be inserted was shaved and disinfected with 10% povidone iodine. A 10-mm×10-mm to 15-mm×15-mm square of skin was intersected using scissors. The defect size was slightly larger (10%) than the graft. The graft was positioned on the graft bed avoiding folds along the edges. Eight sutures were placed on the corners and on the middle of each edge. […] When the graft was considered as successful, it was then monitored daily for signs of rejection. […]

## COc1cc(O)c(OC)c(O)c1C(=O)/C=C/c1ccccc1 [2,4-D, 2′,4′-dihydroxy-3′,6′-dimethoxychalcone]
[1]; high dose i.p.: 2,4-D 100 mg/kg, CLC 1 mg/kg, DEX 0.5 mg/kg
  reduction of MSU-induced knee joint edema: 68.4%
[1]; low dose i.p.: 2,4-D 20 mg/kg, DEX 0.1 mg/kg
  reduction of MSU-induced knee joint edema: 45.3%
[2]; 2 mg/kg
  median graft survival: 15 days
[2]; 10 mg/kg
  median graft survival: 19 days
[2]; 50 mg/kg
  median graft survival: 24 days
